Literature values as cited in patent US20130085461A1, “Method for Pre-Debriding Treatment of Non-Viable Skin Tissue and Compositions and System Thereof” (BIOMEDICAL CONCEPTS LLC, priority 2011, published 2013).
Where two headings read alike, the source gives them in different places.

Target: T1, rat tail Type I collagen (Rattus norvegicus, UniProt P02454+P02466)
T1 construct: host or cells: rat tail (tissue), as reported in the cited work
Settings: non-viable rat tail Type I collagen

T1 sequence (P02454 152-1207 limits assumed): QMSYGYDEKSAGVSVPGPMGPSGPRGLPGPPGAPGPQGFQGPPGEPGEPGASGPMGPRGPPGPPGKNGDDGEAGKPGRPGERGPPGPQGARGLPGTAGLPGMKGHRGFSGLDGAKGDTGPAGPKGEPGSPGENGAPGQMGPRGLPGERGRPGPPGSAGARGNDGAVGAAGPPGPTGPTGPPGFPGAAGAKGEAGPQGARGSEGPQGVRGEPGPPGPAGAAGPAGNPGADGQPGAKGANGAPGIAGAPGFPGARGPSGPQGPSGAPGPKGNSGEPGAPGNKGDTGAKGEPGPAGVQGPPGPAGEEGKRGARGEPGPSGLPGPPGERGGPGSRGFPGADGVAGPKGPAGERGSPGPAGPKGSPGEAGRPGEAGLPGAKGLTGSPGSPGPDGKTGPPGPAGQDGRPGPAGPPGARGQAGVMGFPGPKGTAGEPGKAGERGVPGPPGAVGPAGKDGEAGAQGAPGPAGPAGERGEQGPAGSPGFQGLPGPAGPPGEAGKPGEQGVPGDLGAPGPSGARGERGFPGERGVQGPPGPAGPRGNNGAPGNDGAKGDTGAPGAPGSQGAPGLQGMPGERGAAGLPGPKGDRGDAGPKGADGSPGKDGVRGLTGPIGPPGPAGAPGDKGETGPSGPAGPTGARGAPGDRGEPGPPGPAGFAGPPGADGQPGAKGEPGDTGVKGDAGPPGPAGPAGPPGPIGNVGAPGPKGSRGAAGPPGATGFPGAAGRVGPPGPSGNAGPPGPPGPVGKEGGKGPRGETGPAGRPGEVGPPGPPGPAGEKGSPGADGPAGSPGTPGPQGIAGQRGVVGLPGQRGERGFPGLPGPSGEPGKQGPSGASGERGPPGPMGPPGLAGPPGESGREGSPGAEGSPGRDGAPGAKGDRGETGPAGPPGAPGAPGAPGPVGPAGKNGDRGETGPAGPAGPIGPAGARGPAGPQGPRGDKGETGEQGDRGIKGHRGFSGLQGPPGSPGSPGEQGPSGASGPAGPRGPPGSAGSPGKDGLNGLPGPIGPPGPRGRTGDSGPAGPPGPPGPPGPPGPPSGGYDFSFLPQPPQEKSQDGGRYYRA
T1 sequence (P02466 86-1125 limits assumed): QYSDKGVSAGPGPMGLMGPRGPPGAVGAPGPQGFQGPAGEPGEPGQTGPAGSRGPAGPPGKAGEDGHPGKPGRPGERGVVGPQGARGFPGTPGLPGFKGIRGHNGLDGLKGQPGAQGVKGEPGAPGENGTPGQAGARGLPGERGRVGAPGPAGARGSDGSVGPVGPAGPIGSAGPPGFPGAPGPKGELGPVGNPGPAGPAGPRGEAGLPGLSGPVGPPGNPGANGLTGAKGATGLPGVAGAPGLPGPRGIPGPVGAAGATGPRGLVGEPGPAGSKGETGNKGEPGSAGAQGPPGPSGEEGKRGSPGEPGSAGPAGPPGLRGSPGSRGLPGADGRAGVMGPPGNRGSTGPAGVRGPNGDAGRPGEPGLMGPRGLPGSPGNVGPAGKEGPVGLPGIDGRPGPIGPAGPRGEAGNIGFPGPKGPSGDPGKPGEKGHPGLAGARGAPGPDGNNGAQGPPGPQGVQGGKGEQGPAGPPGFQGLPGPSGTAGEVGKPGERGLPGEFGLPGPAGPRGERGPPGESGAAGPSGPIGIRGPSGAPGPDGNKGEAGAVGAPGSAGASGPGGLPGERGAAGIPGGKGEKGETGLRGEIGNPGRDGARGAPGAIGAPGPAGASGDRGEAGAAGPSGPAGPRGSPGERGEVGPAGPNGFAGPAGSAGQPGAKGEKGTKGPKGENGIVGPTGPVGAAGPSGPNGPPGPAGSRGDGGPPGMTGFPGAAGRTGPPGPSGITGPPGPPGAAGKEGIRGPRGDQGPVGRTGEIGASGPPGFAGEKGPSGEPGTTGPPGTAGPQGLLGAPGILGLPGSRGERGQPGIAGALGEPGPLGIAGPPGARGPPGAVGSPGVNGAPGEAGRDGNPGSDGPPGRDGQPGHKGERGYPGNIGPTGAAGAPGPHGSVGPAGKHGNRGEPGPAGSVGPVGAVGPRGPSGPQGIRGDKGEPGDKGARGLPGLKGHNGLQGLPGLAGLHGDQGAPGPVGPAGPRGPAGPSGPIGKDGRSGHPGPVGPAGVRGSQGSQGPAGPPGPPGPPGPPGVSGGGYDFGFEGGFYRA

## CCCO [n-propanol]
10 mole %
  reduction of denaturation temperature (Tm=67.5° C.): 3.5 °C

## NC(N)=O [urea]
3M
  reduction of denaturation temperature (Tm=67.5° C.): 13.5 °C
